Experiment [1] addresses T1, SIRT2 (Homo sapiens, UniProt Q8IXJ6).
T1 sequence (Q8IXJ6 2-389): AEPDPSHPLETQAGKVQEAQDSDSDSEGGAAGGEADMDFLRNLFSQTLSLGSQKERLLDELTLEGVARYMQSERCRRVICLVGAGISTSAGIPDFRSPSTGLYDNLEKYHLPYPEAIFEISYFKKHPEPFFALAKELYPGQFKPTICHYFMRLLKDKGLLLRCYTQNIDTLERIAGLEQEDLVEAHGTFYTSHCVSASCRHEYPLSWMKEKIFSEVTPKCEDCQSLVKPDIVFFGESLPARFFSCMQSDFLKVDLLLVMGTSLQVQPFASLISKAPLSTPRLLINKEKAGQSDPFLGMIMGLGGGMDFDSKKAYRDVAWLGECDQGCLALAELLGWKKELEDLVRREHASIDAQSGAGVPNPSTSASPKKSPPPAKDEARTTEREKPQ
The experiment in a line: biochemical. Particulars: for inhibition at 50 µM: read-out: Inhibition (%±SD) / SIRT2 / 50 μM.

The target in experiment [2] is T2, SIRT3 (Homo sapiens, UniProt Q9NTG7).
T2 sequence (Q9NTG7 102-399): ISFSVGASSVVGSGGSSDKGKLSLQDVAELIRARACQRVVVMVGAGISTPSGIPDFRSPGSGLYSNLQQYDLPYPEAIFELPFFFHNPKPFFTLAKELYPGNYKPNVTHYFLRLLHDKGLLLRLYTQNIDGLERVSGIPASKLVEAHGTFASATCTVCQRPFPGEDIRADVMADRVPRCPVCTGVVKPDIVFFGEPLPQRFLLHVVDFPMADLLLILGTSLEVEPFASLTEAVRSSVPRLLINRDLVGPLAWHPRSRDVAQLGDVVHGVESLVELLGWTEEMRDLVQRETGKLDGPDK
Nature of the experiment: biochemical. Particulars: for inhibition at 100 µM: read-out: Inhibition (%±SD) / SIRT3 / 100 μM; for inhibition at 50 µM: read-out: Inhibition (%±SD) / SIRT3 / 50 μM.

The target in experiment [3] is T2, SIRT3. The experiment in a line: fluorescence-based deacetylase assay kit, human recombinant enzyme. Particulars: read-out: Inhibition (%±SD) / SIRT3 / 50 μM. It is filed as biochemical.
Experiment [4] has as its target T3, SIRT1 (Homo sapiens, UniProt Q96EB6).
T3 sequence (Q96EB6 2-747): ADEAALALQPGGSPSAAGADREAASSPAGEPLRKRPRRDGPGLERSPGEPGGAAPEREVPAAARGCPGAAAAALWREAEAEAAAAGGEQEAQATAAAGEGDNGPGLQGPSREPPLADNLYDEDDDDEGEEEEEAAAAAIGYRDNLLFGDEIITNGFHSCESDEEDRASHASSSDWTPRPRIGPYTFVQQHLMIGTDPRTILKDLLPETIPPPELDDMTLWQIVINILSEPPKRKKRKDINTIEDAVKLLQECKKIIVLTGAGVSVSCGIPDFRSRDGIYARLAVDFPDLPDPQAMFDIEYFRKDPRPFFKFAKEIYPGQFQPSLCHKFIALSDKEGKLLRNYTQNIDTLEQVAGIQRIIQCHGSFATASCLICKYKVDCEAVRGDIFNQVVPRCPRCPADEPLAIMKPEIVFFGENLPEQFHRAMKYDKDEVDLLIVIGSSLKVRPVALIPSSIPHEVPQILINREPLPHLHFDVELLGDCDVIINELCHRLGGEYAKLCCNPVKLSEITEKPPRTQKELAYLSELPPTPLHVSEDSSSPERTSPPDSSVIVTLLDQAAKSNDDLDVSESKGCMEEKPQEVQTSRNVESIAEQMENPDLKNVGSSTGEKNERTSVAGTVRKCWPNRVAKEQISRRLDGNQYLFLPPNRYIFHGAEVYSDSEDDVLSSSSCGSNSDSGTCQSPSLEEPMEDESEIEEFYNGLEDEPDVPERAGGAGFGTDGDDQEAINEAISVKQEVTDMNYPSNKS
Nature of the experiment: biochemical. Particulars: for inhibition at 100 µM: read-out: Inhibition (%±SD) / SIRT1 / 100 μM.

Experiment [5] deals with T4, SIRT2 (Homo sapiens, UniProt Q8IXJ6). The experiment in a line: fluorescence-based deacetylase assay kit, human recombinant enzyme. It is filed as biochemical.
Experiment [6] has as its target T4, SIRT2. The experiment is described as above. It is filed as biochemical. Particulars: read-out: Inhibition (%±SD) / SIRT2 / 50 μM / SIRT1 / 100 μM.
Experiment [7] deals with T3, SIRT1. Described as above. Particulars: read-out: Inhibition (%±SD) / SIRT1 / 100 μM / 50 μM. It is filed as biochemical.
The mark [8] stands for this setting: read-out: Inhibition (%±SD) / SIRT2 / 100 μM.

Read-outs that look alike come from different tables or passages of the source.

Regarding `Cc1ccc(C(=O)Nc2ccc(S(=O)(=O)O)c3cc(S(=O)(=O)O)cc(S(=O)(=O)O)c23)cc1NC(=O)c1cccc(NC(=O)Nc2cccc(C(=O)Nc3cc(C(=O)Nc4ccc(S(=O)(=O)O)c5cc(S(=O)(=O)O)cc(S(=O)(=O)O)c45)ccc3C)c2)c1` [Suramin], the inhibition at 100 µM at SIRT2 [1] (read-out: % inhibition) was found to be 98.52 ± 0.45%. Further, at SIRT2 [1] (setting [8]), the inhibition is 78.92 ± 0.67%.

Regarding `O=C(CSc1ccccc1)Nc1ccc2c(c1)C(=O)c1cc(NC(=O)CSc3ccccc3)ccc1-2` [SG9, N,N′‐(9‐Oxo‐9H‐fluorene‐2,7‐diyl)bis[2‐(phenylthio)acetamide]], the inhibition at 100 µM came out at 90 ± 3.41% at SIRT3 [2] and 71.4 ± 6.51% on SIRT2 [1] (setting [8]). For the same molecule, the inhibition at 50 µM amounted to 51 ± 2.28% at SIRT2 [1] and 85% at SIRT3 [3].

Consider `Cn1ccc(NC(=O)COc2ccc3c(c2)C(=O)c2cc(OCC(=O)Nc4ccn(C)n4)ccc2-3)n1` [SG6], for which the inhibition at 50 µM on SIRT3 [2] turned out to be 20.5 ± 7.34%; on SIRT2 [1], 64 ± 3.84%. Moreover, the inhibition at 100 µM is 36.8 ± 2.26% at SIRT3 [2], 65.6 ± 3.34% on SIRT2 [1] (setting [8]) and 27.8 ± 1.31% at SIRT1 [4].

Broadly, the IC50 is the concentration at which inhibition is half-maximal. As to `O=C(Nc1ccc2c(c1)C(=O)c1cc(NC(=O)Nc3ccccn3)ccc1-2)Nc1ccccn1` [SG4, 1,1′‐(9‐oxo‐9H‐fluorene‐2,7‐diyl)bis[3‐(pyridin‐2‐yl)urea]], the inhibition at 100 µM on SIRT3 [2] is 42.5 ± 4.88%; at SIRT2 [1] (setting [8]), 101 ± 7.54%; on SIRT1 [4], 24.7 ± 5.02%. Also, the inhibition at 50 µM on SIRT2 [1] worked out at 67.6 ± 3.95%. In addition, the IC50 at SIRT2 [5] stood at 6.65 µM.

With `Cn1ccc(NC(=O)Nc2ccc3c(c2)C(=O)c2cc(NC(=O)Nc4ccn(C)n4)ccc2-3)n1` [SG2], the values for the inhibition at 100 µM on SIRT3 [2], at SIRT2 [1] (setting [8]) and on SIRT1 [4] were 17.5 ± 0.57%, 48.5 ± 0.3% and 11.3 ± 1.83%, respectively. For the same molecule, at SIRT2 [1], the inhibition at 50 µM turned out to be 21.6 ± 4.19%.

In the case of `O=C(COc1ccc2c(c1)C(=O)c1cc(OCC(=O)Nc3ccccn3)ccc1-2)Nc1ccccn1` [SG8, 2,2′‐[(9‐Oxo‐9H‐fluorene‐2,7‐diyl)bis(oxy)]bis[N‐(pyridin‐2‐yl)acetamide]], the inhibition at 100 µM at SIRT3 [2] turned out to be 83.07 ± 0.27%; at SIRT2 [1] (setting [8]) it was 103 ± 2.61%; on SIRT1 [4], 13.2 ± 2.22%. The inhibition at 50 µM came to 99.8% on SIRT2 [6] and 76.4% on SIRT3 [3].

`CN(CC(=O)Nc1ccc2c(c1)C(=O)c1cc(NC(=O)CN(C)c3ccccc3)ccc1-2)c1ccccc1` [SG12, N,N′‐(9‐oxo‐9H‐fluorene‐2,7‐diyl)bis{2‐[methyl(phenyl)amino]acetamide}]: the inhibition at 100 µM at SIRT3 [2] worked out at 95.84 ± 0.52%; at SIRT2 [1] (setting [8]), 85.5 ± 5.68%; at SIRT1 [4], 88.4 ± 4.45%. Further, the inhibition at 50 µM on SIRT2 [6] stood at 74.7%; at SIRT3 [3] it was 70.1%.

With `O=C(COc1ccc2c(c1)C(=O)c1cc(OCC(=O)Nc3ccon3)ccc1-2)Nc1ccon1` [SG7], the inhibition at 100 µM at SIRT2 [1] (setting [8]) was 21.5 ± 2.37%.

For `NC(=O)C1CCCc2c1[nH]c1ccc(Cl)cc21` (racemic) [EX‐527], the inhibition at 50 µM at SIRT1 [7] was found to be 90.2%.

For the molecule `O=C(Nc1ccc2c(c1)C(=O)c1cc(NC(=O)Nc3nccs3)ccc1-2)Nc1nccs1` [SG1, 1,1′‐(9‐Oxo‐9H‐fluorene‐2,7‐diyl)bis[3‐(thiazol‐2‐yl)urea]], the inhibition at 100 µM on SIRT3 [2] came to 44.7 ± 2.08%; on SIRT2 [1] (setting [8]), 106 ± 4.22%; at SIRT1 [4] it was 22.5 ± 3.74%. Moreover, the inhibition at 50 µM at SIRT2 [1] was 72.4 ± 2.88%. Besides, on SIRT2 [5], the half-maximal inhibitory concentration (IC50) was determined as 9.67 µM.

Consider `Cn1ccnc1SCC(=O)Nc1ccc2c(c1)C(=O)c1cc(NC(=O)CSc3nccn3C)ccc1-2` [SG10], for which, on SIRT2 [1] (setting [8]), the inhibition at 100 µM was found to be 18.1 ± 1.88%.

Turning to `O=C(COc1ccc2c(c1)C(=O)c1cc(OCC(=O)Nc3nccs3)ccc1-2)Nc1nccs1` [SG5, 2,2′‐[(9‐Oxo‐9H‐fluorene‐2,7‐diyl)bis(oxy)]bis[N‐(thiazol‐2‐yl)acetamide]], the inhibition at 50 µM on SIRT3 [2] is 51.7 ± 1.56%; on SIRT2 [6], 62.4%; on SIRT1 [4] (read-out: Inhibition (%±SD) / SIRT1 / 50 μM), 53.2 ± 1.62%. The results for the inhibition at 100 µM on SIRT3 [2], at SIRT2 [1] (setting [8]) and on SIRT1 [4] were 55.6 ± 4.42%, 102 ± 8.24% and 71.2 ± 5.29%, respectively.

Take `O=C(Nc1ccc2c(c1)C(=O)c1cc(NC(=O)Nc3ccon3)ccc1-2)Nc1ccon1` [SG3, 1,1′‐(9‐Oxo‐9H‐fluorene‐2,7‐diyl)bis[3‐(isoxazol‐3‐yl)urea]]: the values for the inhibition at 100 µM on SIRT3 [2] and at SIRT2 [1] (setting [8]) were 18.6 ± 1.54% and 84.4 ± 4.07%, respectively. Moreover, the inhibition at 50 µM at SIRT2 [1] was 77.8 ± 1.7%. For the same molecule, the IC50 on SIRT2 [5] is 1.95 µM.

In the case of `Cc1cc(C)nc(SCC(=O)Nc2ccc3c(c2)C(=O)c2cc(NC(=O)CSc4nc(C)cc(C)n4)ccc2-3)n1` [SG11], at SIRT2 [1] (setting [8]), the inhibition at 100 µM is 17.2 ± 6.1%.

The record behind these values is article PMC11610652 (Archiv Der Pharmazie, 2024).
